ChEMBL document CHEMBL5126603, “Discovery of Clinical Candidate CHF-6366: A Novel Super-soft Dual Pharmacology Muscarinic Antagonist and β2 Agonist (MABA) for the Inhaled Treatment of Respiratory Diseases” (J Med Chem, 2022)

How the values were obtained:
[1] = Half life in Dunkin-Hartley guinea pig plasma at 500 nmol/Kg, IT(Intratracheal) measured after 72 hrs by LC/MS-MS analysis; assay type: ADME, cell-free, Cavia porcellus; conditions: inhaled or intranasal
Trachea [2] = assay: Bifunctional antagonist activity at muscarinic M3 receptor /agonist activity at beta-2 adrenoceptor in Dunkin-Hartley guinea pig trachea assessed as inhibition of acetylcholine-induced bronchoconstriction at 1 nmol/Kg, IT(Intratracheal) measured after 15 mins by Konzett-Roessler methodology relative to control; assay type: functional; conditions: Cavia porcellus, 0.25 h
[3] = Cmax in Dunkin-Hartley guinea pig lung at 500 nmol/Kg, IT(Intratracheal) measured after 72 hrs by LC/MS-MS analysis; assay type: ADME, tissue-based, Cavia porcellus; parameters: time 72 hrs, dose 500 nmol/kg, route it(Intratracheal); conditions: inhaled or intranasal
Trachea [4] = assay: Bifunctional antagonist activity at muscarinic M3 receptor /agonist activity at beta-2 adrenoceptor in Dunkin-Hartley guinea pig trachea assessed as inhibition of acetylcholine-induced bronchoconstriction at 1 nmol/Kg, IT(Intratracheal) measured after 5 mins by Konzett-Roessler methodology relative to control; assay type: functional; conditions: Cavia porcellus
[5] = Tmax in Dunkin-Hartley guinea pig plasma at 500 nmol/Kg, IT(Intratracheal) measured after 72 hrs by LC/MS-MS analysis; assay type: ADME, cell-free, Cavia porcellus; conditions: inhaled or intranasal
[6] = AUClast in Dunkin-Hartley guinea pig plasma at 500 nmol/Kg, IT(Intratracheal) measured after 72 hrs by LC/MS-MS analysis; assay type: ADME, cell-free, Cavia porcellus; parameters: time 72 hrs, dose 500 nmol/kg, route it(Intratracheal); conditions: inhaled or intranasal
[7] = Half life in Dunkin-Hartley guinea pig lung at 500 nmol/Kg, IT(Intratracheal) measured after 72 hrs by LC/MS-MS analysis; assay type: ADME, tissue-based, Cavia porcellus; conditions: inhaled or intranasal
[8] = Mutagenicity in Escherichia coli assessed as induction of reverse mutation by Ames test; assay type: toxicity
[9] = Tmax in Dunkin-Hartley guinea pig lung at 500 nmol/Kg, IT(Intratracheal) measured after 72 hrs by LC/MS-MS analysis; assay type: ADME, tissue-based, Cavia porcellus; conditions: inhaled or intranasal
[10] = AUClast in Dunkin-Hartley guinea pig lung at 500 nmol/Kg, IT(Intratracheal) measured after 72 hrs by LC/MS-MS analysis; assay type: ADME, tissue-based, Cavia porcellus; conditions: in vivo, inhaled_or_intranasal
[11] = AUCinfinity in Dunkin-Hartley guinea pig plasma at 500 nmol/Kg, IT(Intratracheal) measured after 72 hrs by LC/MS-MS analysis; assay type: ADME, cell-free, Cavia porcellus; parameters: dose 500 nmol/kg, time 72 hrs, route it(Intratracheal); conditions: inhaled or intranasal
[12] = Mutagenicity in Salmonella typhimurium assessed as induction of reverse mutation by Ames test; assay type: toxicity; conditions: salmonella enterica subsp. enterica serovar typhimurium
[13] = AUCinfinity in Dunkin-Hartley guinea pig lung at 500 nmol/Kg, IT(Intratracheal) measured after 72 hrs by LC/MS-MS analysis; assay type: ADME, tissue-based, Cavia porcellus; parameters: dose 500 nmol/kg, time 72 hrs, route it(Intratracheal); conditions: in vivo, inhaled_or_intranasal
Trachea [14] = assay: Bifunctional antagonist activity at muscarinic M3 receptor /agonist activity at beta-2 adrenoceptor in Dunkin-Hartley guinea pig trachea assessed as inhibition of acetylcholine-induced bronchoconstriction at 1 nmol/Kg, IT(Intratracheal) measured after 30 mins by Konzett-Roessler methodology relative to control; assay type: functional; conditions: Cavia porcellus, 0.5 h
[15] = Cmax in Dunkin-Hartley guinea pig plasma at 500 nmol/Kg, IT(Intratracheal) measured after 72 hrs by LC/MS-MS analysis; assay type: ADME, cell-free, Cavia porcellus; parameters: dose 500 nmol/kg, time 72 hrs, route it(Intratracheal); conditions: inhaled or intranasal
[16] = Metabolic stability in rat lung S9 fraction assessed as half life at 1 uM measured after 0 to 60 mins in presence of NADPH by LC-MS/MS analysis; assay type: ADME, subcellular; conditions: time 0-60 min
[17] = Metabolic stability in rat plasma assessed as half life at 5 uM measured upto 120 mins by LC-MS/MS analysis; assay type: ADME, cell-free
Trachea [18] = assay: In vivo bifunctional antagonist activity at muscarinic M3 receptor /agonist activity at beta-2 adrenoceptor in Dunkin-Hartley guinea pig trachea assessed as inhibition of carbachol induced contraction; assay type: functional, tissue-based; conditions: Cavia porcellus
[19] = In vivo antagonist activity at muscarinic M3 receptor in Dunkin-Hartley guinea pig trachea assessed as inhibition of acetylcholine induced bronchoconstriction at 1 nmol/Kg, IT(Intratracheal) measured after 1 hr in presence of ICI-118551 by Konzett-Roessler methodology relative to control; assay type: functional; conditions: Cavia porcellus
[20] = In vivo agonist activity at beta-2 adrenoceptor in Dunkin-Hartley guinea pig trachea assessed as inhibition of histamine-induced bronchoconstriction at 3 nmol/Kg, IT(Intratracheal) measured after 24 hr by Konzett-Roessler methodology relative to control; assay type: functional; conditions: Cavia porcellus
Trachea [21] = assay: Bifunctional antagonist activity at muscarinic M3 receptor /agonist activity at beta-2 adrenoceptor in Dunkin-Hartley guinea pig trachea assessed as inhibition of acetylcholine-induced bronchoconstriction at 3 nmol/Kg, IT(Intratracheal) measured after 1 hr by Konzett-Roessler methodology relative to control; assay type: functional; conditions: Cavia porcellus
[22] = Metabolic stability in Dunkin-Hartley guinea pig plasma assessed as half life at 5 uM measured upto 120 mins by LC-MS/MS analysis; assay type: ADME, cell-free, Cavia porcellus
[23] = In vivo agonist activity at beta-2 adrenoceptor in Dunkin-Hartley guinea pig trachea assessed as inhibition of histamine-induced bronchoconstriction at 3 nmol/Kg, IT(Intratracheal) measured after 1 hr by Konzett-Roessler methodology relative to control; assay type: functional; conditions: Cavia porcellus
[24] = In vivo agonist activity at beta-2 adrenoceptor in Dunkin-Hartley guinea pig trachea assessed as inhibition of histamine induced bronchoconstriction at 1 nmol/Kg, IT(Intratracheal) measured after 1 hr by Konzett-Roessler methodology relative to control; assay type: functional; conditions: Cavia porcellus
[25] = Metabolic stability in human plasma assessed as half life at 5 uM measured upto 120 mins by LC-MS/MS analysis; assay type: ADME, cell-free
Trachea [26] = assay: Bifunctional antagonist activity at muscarinic M3 receptor /agonist activity at beta-2 adrenoceptor in Dunkin-Hartley guinea pig trachea assessed as inhibition of acetylcholine induced bronchoconstriction at 1 nmol/Kg, IT(Intratracheal) measured after 1 hr by Konzett-Roessler methodology relative to control; assay type: functional; conditions: Cavia porcellus
[27] = In vivo antagonist activity at muscarinic M3 receptor in Dunkin-Hartley guinea pig trachea assessed as inhibition of acetylcholine induced bronchoconstriction at 1 nmol/Kg, IT(Intratracheal) measured after 24 hr in presence of ICI-118551 by Konzett-Roessler methodology relative to control; assay type: functional; conditions: Cavia porcellus
Trachea [28] = assay: Bifunctional antagonist activity at muscarinic M3 receptor /agonist activity at beta-2 adrenoceptor in Dunkin-Hartley guinea pig trachea assessed as inhibition of acetylcholine induced bronchoconstriction at 1 nmol/Kg, IT(Intratracheal) measured after 24 hr by Konzett-Roessler methodology relative to control; assay type: functional; conditions: Cavia porcellus
[29] = Metabolic stability in human lung S9 fraction assessed as half life at 1 uM measured after 0 to 60 mins in presence of NADPH by LC-MS/MS analysis; assay type: ADME, subcellular; conditions: time 0-60 min
[30] = Metabolic stability in Dunkin-Hartley guinea pig lung S9 fraction assessed as half life at 1 uM measured after 0 to 60 mins in presence of NADPH by LC-MS/MS analysis; assay type: ADME, subcellular, Cavia porcellus; conditions: time 0-60 min
[31] = In vivo antagonist activity at muscarinic M3 receptor in Dunkin-Hartley guinea pig trachea assessed as inhibition of acetylcholine-induced bronchoconstriction at 3 nmol/Kg, IT(Intratracheal) measured after 1 hr in presence of ICI-118551 by Konzett-Roessler methodology relative to control; assay type: functional; conditions: Cavia porcellus
Trachea [32] = assay: In vivo bifunctional antagonist activity at muscarinic M3 receptor /agonist activity at beta-2 adrenoceptor in Dunkin-Hartley guinea pig trachea assessed as time duration for inhibition of carbachol induced contraction measured […]; assay type: functional, Cavia porcellus
Trachea [33] = assay: Bifunctional antagonist activity at muscarinic M3 receptor /agonist activity at beta-2 adrenoceptor in Dunkin-Hartley guinea pig trachea assessed as inhibition of acetylcholine-induced bronchoconstriction at 3 nmol/Kg, IT(Intratracheal) measured after 24 hr by Konzett-Roessler methodology relative to control; assay type: functional; conditions: Cavia porcellus
[34] = In vivo antagonist activity at muscarinic M3 receptor in Dunkin-Hartley guinea pig trachea assessed as inhibition of acetylcholine-induced bronchoconstriction at 3 nmol/Kg, IT(Intratracheal) measured after 24 hr in presence of ICI-118551 by Konzett-Roessler methodology relative to control; assay type: functional; conditions: Cavia porcellus

| SMILES | half-life [1] [min] | inhibition in vivo at 0.001 µmol/kg (Trachea [2]) [%] | Cmax [3] [ng/g] | inhibition in vivo at 0.001 µmol/kg (Trachea [4]) [%] | Tmax [5] [min] | AUC(0-t) at 72 h [6] [ng·h/mL] | half-life [7] [min] | Activity [8] | Tmax [9] [min] | AUClast [10] [ng·h/g] | AUC(0-inf) [11] [ng·h/mL] | Activity [12] | AUC [13] [ng·h/g] | inhibition in vivo at 0.001 µmol/kg (Trachea [14]) [%] | Cmax [15] [ng/g] | half-life at 5 µM [17] [min] | IC50 (Trachea [18]) [nM] | half-life at 5 µM [25] [min] | half-life at 1 µM [29] [min] | Time (Trachea [32]) [min] | also measured |
| --- | --- | --- | --- | --- | --- | --- | --- | --- | --- | --- | --- | --- | --- | --- | --- | --- | --- | --- | --- | --- | --- |
| O=c1ccc2c([C@@H](O)CNCCCCO)ccc(O)c2[nH]1 | 464 | 23.2 | 334 | 51.4 | 4.98 | 30.7 | 858 | Non-Toxic | 4.98 | 2429 | 58.9 | Non-Toxic | 3517 | 22 | 13.8 |  |  |  |  |  |  |
| O=C(N[C@@H](c1ccccc1)c1cccc(OCc2nc(C(=O)OCCCCNC[C@H](O)c3ccc(O)c4[nH]c(=O)ccc34)co2)c1)O[C@H]1CN2CCC1CC2 |  |  |  |  |  |  |  |  |  |  |  |  |  |  |  | < 5 | 0.251 | < 5 | 35 | >270 | half-life at 1 µM [16]: 120 min; inhibition in vivo at 0.001 µmol/kg [19]: 65.5%; inhibition in vivo at 0.003 µmol/kg [20]: 49.9%; inhibition in vivo at 0.003 µmol/kg (Trachea [21]): 97.2%; half-life at 5 µM [22]: 77.9 min; inhibition in vivo at 0.003 µmol/kg [23]: 97.5%; inhibition in vivo at 0.001 µmol/kg [24]: 67.7%; inhibition in vivo at 0.001 µmol/kg (Trachea [26]): 70%; inhibition in vivo at 0.001 µmol/kg [27]: 23.8%; inhibition in vivo at 0.001 µmol/kg (Trachea [28]): 31.9%; half-life at 1 µM [30]: > 120 min; inhibition in vivo at 0.003 µmol/kg [31]: 96.1%; inhibition in vivo at 0.003 µmol/kg (Trachea [33]): 58.8%; inhibition in vivo at 0.003 µmol/kg [34]: 37.2% |
| O=C(N[C@@H](c1ccccc1)c1cccc(OCc2cccc(C(=O)OCCCCNC[C@H](O)c3ccc(O)c4[nH]c(=O)ccc34)c2)c1)O[C@H]1CN2CCC1CC2 |  |  |  |  |  |  |  |  |  |  |  |  |  |  |  | 103 | 0.501 | < 5 | 17.2 | >225 |  |
| Cn1nc(C(=O)O)cc1COc1cccc([C@@H](NC(=O)O[C@H]2CN3CCC2CC3)c2ccccc2)c1 | 1240 | 1.92 | 1450 | 0.84 | 4.98 | 179 | 316 | Non-Toxic | 4.98 | 6226 | 296 | Non-Toxic | 6465 | 3.36 | 41.7 |  |  |  |  |  |  |
